A short description of data set [1]: Water solubility (sonicated suspension, HPLC).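 As to all read-outs here: concentration in the clear supernatant quantified by HPLC peak area against a DMSO standard solution of the same compound, corrected for dilution and injection volume.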 The format is physicochemical. Conditions: in water; for solubility at 15 min: thermodynamic from solid.
A short description of data set [2]: Stability to human liver microsomes.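 Also: parent compound quantified by LC-MS/MS against an internal standard, duplicates averaged, expressed relative to the 0 min sample taken as 100%.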 Format: in vitro ADME. To be noted: 1 μM, 37° C., 60 min, pooled human liver microsomes. For orientation: Microsomes from liver hold many membrane-bound enzymes, among them those of drug oxidation.
The nature of data set [3]: Stability to mouse liver microsomes.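 Also: analyte quantified by LC-MS/MS as ratio to internal standard peak area, mean of duplicates, 60 min value expressed relative to the 0 min level (100%).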 Conditions: 1 μM, 37° C., 60 min, CD-1 mouse liver microsomes. The format is in vitro ADME.
The nature of data set [4]: In vivo pharmacokinetics in mice.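 As to all read-outs here: plasma and lung samples quantified by LC-MS/MS, dosing as a suspension in aqueous carboxymethylcellulose with Tween 80.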 Conditions: CD-1 mice, oral, 40 mg/kg; for Cmax / half-life / Kp: mouse; for Cmax / half-life: in vivo, plasma; for half-life: read-out: t½ (h) plasma (converted); for Kp: lung/plasma, read-out: AUC ratio (lung/plasma).

Values after ≈ are worked out from the molar mass of the structure shown.

For the molecule `O=[N+]([O-])c1cn2c(n1)OC[C@@H](OC/C=C/c1ccc(-c3ccc(OC(F)(F)F)cc3)cc1)C2` [Compound 19, (6S)-2-Nitro-6-({(2E)-3-[4′-(trifluoromethoxy)[1,1′-biphenyl]-4-yl]-2-propenyl}oxy)-6,7-dihydro-5H-imidazo[2,1-b][1,3]oxazine], the melting point is 220 to 221 °C. Further, the Solubility in data set [1] worked out at 0.50 µg/mL (≈ 1.08 µM). The “Microsomes (% remaining, 1 h) Human” value in data set [2] amounted to 100%. In addition, in data set [3], the “Microsomes (% remaining, 1 h) Mouse” value is listed as 95%.

In the case of `O=[N+]([O-])c1cn2c(n1)OC[C@@H](OCc1cnc(-c3ccc(OC(F)(F)F)cc3)nc1)C2` [Compound 16, (6S)-2-Nitro-6-({2-[4-(trifluoromethoxy)phenyl]-5-pyrimidinyl}methoxy)-6,7-dihydro-5H-imidazo[2,1-b][1,3]oxazine], the melting point fell in the range of 227 to 230 °C. Further, the Solubility in data set [1] was 2.1 µg/mL (≈ 4.8 µM). Moreover, the “Microsomes (% remaining, 1 h) Human” value in data set [2] came to 96%. For the same molecule, the “Microsomes (% remaining, 1 h) Mouse” value in data set [3] was 87%. For the same molecule, in data set [4], the AUC lung came to 131 µg·h/mL, the Cmax came to 1160 ng/mL and the half-life was 23.1 h.

`O=[N+]([O-])c1cn2c(n1)OC[C@@H](OCc1ccc(-c3ccc(C(F)(F)F)nc3)cc1F)C2` [Compound 23, (6S)-6-({2-Fluoro-4-[6-(trifluoromethyl)-3-pyridinyl]benzyl}oxy)-2-nitro-6,7-dihydro-5H-imidazo[2,1-b][1,3]oxazine] displayed a melting point of 195 to 198 °C. Moreover, in data set [1], the solubility at 15 min was 5.7 µg/mL (≈ 13 µM). Also, the “Microsomes (% remaining, 1 h) Human” value in data set [2] stood at 96%. Also, the “Microsomes (% remaining, 1 h) Mouse” value in data set [3] is recorded as 78%. In data set [4], the AUC lung was determined as 55.4 µg·h/mL, the Cmax amounted to 1560 ng/mL, the half-life was 4.9 h and the Kp turned out to be 2.5.

As for `O=[N+]([O-])c1cn2c(n1)OC[C@@H](OCc1ccc(C#Cc3ccc(C(F)(F)F)nc3)cn1)C2` [Compound 25, (6S)-2-Nitro-6-[(5-{[6-(trifluoromethyl)-3-pyridinyl]ethynyl}-2-pyridinyl)methoxy]-6,7-dihydro-5H-imidazo[2,1-b][1,3]oxazine], the melting point is 226 to 227 °C. Also, in data set [2], the “Microsomes (% remaining, 1 h) Human” value was determined as 88%. In data set [3], the “Microsomes (% remaining, 1 h) Mouse” value is 91%.

In turn, `O=[N+]([O-])c1cn2c(n1)OC[C@@H](OCc1ccc(-c3ccc(C(F)(F)F)cn3)cc1)C2` [Compound 8, (6S)-2-Nitro-6-({4-[5-(trifluoromethyl)-2-pyridinyl]benzyl}oxy)-6,7-dihydro-5H-imidazo[2,1-b][1,3]oxazine] registered a melting point of 252 to 254 °C. The Solubility in data set [1] worked out at 0.20 µg/mL (≈ 0.476 µM). In data set [2], the “Microsomes (% remaining, 1 h) Human” value was found to be 93%. In data set [3], the “Microsomes (% remaining, 1 h) Mouse” value was 90%. For the same molecule, in data set [4], the AUC lung was 67.3 µg·h/mL and the Kp is 3.3.

`O=[N+]([O-])c1cn2c(n1)OC[C@@H](OCc1ccc(-c3ccc(C(F)(F)F)cn3)cc1F)C2` [Compound 14, (6S)-6-({2-Fluoro-4-[5-(trifluoromethyl)-2-pyridinyl]benzyl}oxy)-2-nitro-6,7-dihydro-5H-imidazo[2,1-b][1,3]oxazine] displayed a melting point of 233 to 235 °C. The amount in solution in data set [1] (solubility at 15 min) came to 1.2 µg/mL (≈ 2.74 µM). For the same molecule, in data set [2], the “Microsomes (% remaining, 1 h) Human” value worked out at 90%. In addition, the “Microsomes (% remaining, 1 h) Mouse” value in data set [3] turned out to be 77%. Also, in data set [4], the AUC lung came to 148 µg·h/mL, the maximum concentration (Cmax) came to 440 ng/mL, the half-life is 13.9 h and the Kp came out at 16.

`O=[N+]([O-])c1cn2c(n1)OC[C@@H](OCc1ncc(-c3ccc(OC(F)(F)F)cc3)cn1)C2` [Compound 29, (6S)-2-Nitro-6-({5-[4-(trifluoromethoxy)phenyl]-2-pyrimidinyl}methoxy)-6,7-dihydro-5H-imidazo[2,1-b][1,3]oxazine] yielded a melting point of 223 to 226 °C. The Solubility in data set [1] is 8.1 µg/mL (≈ 18.5 µM). Further, the “Microsomes (% remaining, 1 h) Human” value in data set [2] amounted to 92%. Also, in data set [3], the “Microsomes (% remaining, 1 h) Mouse” value is 87%.

`O=[N+]([O-])c1cn2c(n1)OC[C@@H](OCc1ccc(Cc3ccc(OC(F)(F)F)cc3)cc1)C2` [Compound 17, (6S)-2-Nitro-6-({4-[4-(trifluoromethoxy)benzyl]benzyl}oxy)-6,7-dihydro-5H-imidazo[2,1-b][1,3]oxazine] showed a melting point of 132 to 133 °C. Further, the solubility at 15 min in data set [1] worked out at 0.16 µg/mL (≈ 0.356 µM). The “Microsomes (% remaining, 1 h) Human” value in data set [2] was found to be 85%. Besides, the “Microsomes (% remaining, 1 h) Mouse” value in data set [3] was determined as 70%.

The molecule `O=[N+]([O-])c1cn2c(n1)OC[C@@H](OCc1ccn(-c3ccc(OC(F)(F)F)cc3)n1)C2` [Compound 10, (6S)-2-Nitro-6-({1-[4-(trifluoromethoxy)phenyl]-1H-pyrazol-3-yl}methoxy)-6,7-dihydro-5H-imidazo[2,1-b][1,3]oxazine] displayed a melting point of 103 to 105 °C. Further, the “Microsomes (% remaining, 1 h) Human” value in data set [2] was found to be 87%. Besides, the “Microsomes (% remaining, 1 h) Mouse” value in data set [3] came to 67%. For the same molecule, in data set [4], the AUC lung is 31.5 µg·h/mL, the Cmax stood at 1510 ng/mL, the half-life was 2.4 h and the Kp amounted to 3.5.

Regarding `O=[N+]([O-])c1cn2c(n1)OC[C@@H](OCc1ccc(-c3ccc(OC(F)(F)F)cc3)nc1)C2` [Compound 6, (6S)-2-Nitro-6-({6-[4-(trifluoromethoxy)phenyl]-3-pyridinyl}methoxy)-6,7-dihydro-5H-imidazo[2,1-b][1,3]oxazine], the Solubility in data set [1] worked out at 2.3 µg/mL (≈ 5.27 µM). Also, in data set [2], the “Microsomes (% remaining, 1 h) Human” value worked out at 83%. Further, in data set [3], the “Microsomes (% remaining, 1 h) Mouse” value turned out to be 87%. In data set [4], this molecule had an AUC lung of 81 µg·h/mL and a Cmax of 12200 ng/mL.

In turn, `O=[N+]([O-])c1cn2c(n1)OC[C@@H](OCc1ccc(-c3ccc(F)cn3)cc1)C2` [Compound 26, (6S)-6-{[4-(5-Fluoro-2-pyridinyl)benzyl]oxy}-2-nitro-6,7-dihydro-5H-imidazo[2,1-b][1,3]oxazine] came in with a melting point of 180 to 181 °C. The molecule also displayed a Solubility in data set [1] of 67 µg/mL (≈ 181 µM). Besides, the “Microsomes (% remaining, 1 h) Human” value in data set [2] turned out to be 83%. The “Microsomes (% remaining, 1 h) Mouse” value in data set [3] worked out at 61%.

`O=[N+]([O-])c1cn2c(n1)OC[C@@H](OCc1ccc(-c3ccc(OC(F)(F)F)cc3Cl)cc1)C2` [Compound 1, (6S)-6-{[2′-Chloro-4′-(trifluoromethoxy)[1,1′-biphenyl]-4-yl]methoxy}-2-nitro-6,7-dihydro-5H-imidazo[2,1-b][1,3]oxazine] displayed a melting point of 80 to 82 °C. In data set [1], the concentration in solution (solubility at 15 min) came to 0.66 µg/mL (≈ 1.4 µM). Moreover, the “Microsomes (% remaining, 1 h) Human” value in data set [2] was 91%. Moreover, the “Microsomes (% remaining, 1 h) Mouse” value in data set [3] is reported as 86%. Further, in data set [4], the AUC lung turned out to be 3363 µg·h/mL, the Cmax worked out at 6800 ng/mL, the half-life is 19.9 h and the Kp is 17.

Turning to `O=[N+]([O-])c1cn2c(n1)OC[C@@H](OCc1ccc(-c3ccc(OC(F)(F)F)c(F)c3)nc1)C2` [Compound 21, (6S)-6-({6-[3-Fluoro-4-(trifluoromethoxy)phenyl]-3-pyridinyl}methoxy)-2-nitro-6,7-dihydro-5H-imidazo[2,1-b][1,3]oxazine], the Solubility in data set [1] came to 3.0 µg/mL (≈ 6.6 µM). Further, the “Microsomes (% remaining, 1 h) Human” value in data set [2] is reported as 100%. In addition, the “Microsomes (% remaining, 1 h) Mouse” value in data set [3] was 90%. In data set [4], the AUC lung is 251 µg·h/mL, the half-life is 13.9 h and the Kp was determined as 1.4.

Regarding `O=[N+]([O-])c1cn2c(n1)OC[C@@H](OCc1ccc(-c3ccc(F)cc3)nc1)C2` [Compound 5, (6S)-6-{[6-(4-Fluorophenyl)-3-pyridinyl]methoxy}-2-nitro-6,7-dihydro-5H-imidazo[2,1-b][1,3]oxazine], in data set [1], the Solubility is 3.8 µg/mL (≈ 10.3 µM). Also, in data set [2], the “Microsomes (% remaining, 1 h) Human” value worked out at 88%. In data set [3], the “Microsomes (% remaining, 1 h) Mouse” value amounted to 80%. This molecule came in with an AUC lung in data set [4] of 136 µg·h/mL.

Turning to `O=[N+]([O-])c1cn2c(n1)OC[C@@H](OCc1cnn(-c3ccc(OC(F)(F)F)cc3)c1)C2` [Compound 27, (6S)-2-Nitro-6-({1-[4-(trifluoromethoxy)phenyl]-1H-pyrazol-4-yl}methoxy)-6,7-dihydro-5H-imidazo[2,1-b][1,3]oxazine], the melting point was 150 to 151 °C. Also, the “Microsomes (% remaining, 1 h) Human” value in data set [2] worked out at 87%. Besides, the “Microsomes (% remaining, 1 h) Mouse” value in data set [3] worked out at 64%.

For the molecule `O=[N+]([O-])c1cn2c(n1)OC[C@@H](OCc1ccc(/C=C/c3ccc(OC(F)(F)F)cc3)cc1)C2` [Compound 31, (6S)-2-Nitro-6-[(4-{(E)-2-[4-(trifluoromethoxy)phenyl]ethenyl}benzyl)oxy]-6,7-dihydro-5H-imidazo[2,1-b][1,3]oxazine], the melting point is 228 to 230 °C. The “Microsomes (% remaining, 1 h) Human” value in data set [2] stood at 99%. Also, the “Microsomes (% remaining, 1 h) Mouse” value in data set [3] is recorded as 98%.

`O=[N+]([O-])c1cn2c(n1)OC[C@@H](OCc1cnc(-c3ccc(OC(F)(F)F)cc3)cn1)C2` [Compound 4, (6S)-2-Nitro-6-({5-[4-(trifluoromethoxy)phenyl]-2-pyrazinyl}methoxy)-6,7-dihydro-5H-imidazo[2,1-b][1,3]oxazine]: the melting point lay within 182 to 184 °C. The molecule further gave a Solubility in data set [1] of 2.6 µg/mL (≈ 5.95 µM). Further, in data set [2], the “Microsomes (% remaining, 1 h) Human” value turned out to be 98%. The AUC lung in data set [4] was more than 324 µg·h/mL.

Broadly, the Solubility is the concentration that dissolves in the medium under given conditions. One may read the melting point as the temperature, or range, at which the solid turns liquid. As a reminder, the Cmax is the peak of the concentration-time curve. A word on the solubility: it is how much of the substance goes into solution per volume. A high value points to a readily soluble substance.

Values taken from patent publication US9198913B2, “Nitroimidazooxazines and their uses in anti-tubercular therapy” (priority 2009, dated 2015).
